Reference: PubChem BioAssay (NCI)
Where “and” joins values, the source holds several entries; their conditions need not be identical. Identical values can stand only once.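 Compound exposure: 48 hours, 5 concentrations, 96-well plates. GI50 is the concentration that inhibits growth by half. TGI: concentration producing complete growth inhibition.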

Legend:
Experiment in all cases: NCI tumour cell line growth inhibition, 48 h
786-0 renal = system: 786-0 renal
A498 renal = system: A498 renal
CAKI-1 renal = system: CAKI-1 renal
HCT-116 colon = system: HCT-116 colon
HCT-15 colon = system: HCT-15 colon
LOX IMVI melanoma = system: LOX IMVI melanoma
OVCAR-8 ovarian = system: OVCAR-8 ovarian
RPMI-8226 leukemia = system: RPMI-8226 leukemia
SK-MEL-28 melanoma = system: SK-MEL-28 melanoma
SNB-75 CNS = system: SNB-75 CNS

Compound	TGI (786-0 renal)	TGI (A498 renal)	TGI (CAKI-1 renal)	TGI (HCT-116 colon)	TGI (HCT-15 colon)	TGI (LOX IMVI melanoma)	TGI (OVCAR-8 ovarian)	TGI (RPMI-8226 leukemia)	TGI (SK-MEL-28 melanoma)	TGI (SNB-75 CNS)	GI50 (786-0 renal) [µM]	GI50 (A498 renal)	GI50 (CAKI-1 renal) [µM]	GI50 (HCT-116 colon) [µM]	GI50 (HCT-15 colon)	GI50 (LOX IMVI melanoma)	GI50 (OVCAR-8 ovarian)	GI50 (RPMI-8226 leukemia)	GI50 (SK-MEL-28 melanoma)	GI50 (SNB-75 CNS)
O=C(NNC(=O)c1ccncc1)C(=O)Nc1cc(Cl)c(Cl)cc1Cl	> 100 µM	> 100 µM	> 100 µM	> 100 µM	> 100 µM	> 100 µM	> 100 µM	> 100 µM	> 100 µM	> 100 µM	–	–	–	–	–	–	–	–	–	–
CC(C)(C)OC(=O)NCCCCCCCCCCCCn1c2c(c3ccccc3c1=O)C(=O)c1ccccc1-2	50.6 µM	68.7 µM	57.9 µM	> 100 µM	> 100 µM	> 100 µM	> 100 µM	> 100 µM	> 100 µM	26.3 µM	18.3	24.7 µM	22	> 100	> 100 µM	> 100 µM	49.8 µM	> 100 µM	> 100 µM	8.56 µM
CNC(=O)NCCCCC(NC(C)=O)C(=O)NCc1ccccc1 (centres undefined)	> 100 µM	> 100 µM	> 100 µM	> 100 µM	> 100 µM	> 100 µM	> 100 µM	> 100 µM	> 100 µM	> 100 µM	–	–	–	–	–	–	–	–	–	–
O=C(NC1=C(Cl)C(=O)c2ccccc2C1=O)C(=O)c1c(O)c2ccccc2oc1=O	19 µM	33.9 µM	22.6 µM	7.47 µM	13.7 µM	> 45.9 µM	31 µM	30.3 µM	6.2 µM	25 µM	–	–	–	–	–	–	–	–	–	–
Cc1c2cc[n+](C)cc2c(C)c2c1[nH]c1ccc(OCC(F)(F)F)cc12	> 100 µM	> 100 µM	> 64.7 µM	> 100 µM	> 100 µM	> 100 µM	> 100 µM	43 µM and > 88 µM	> 100 µM	2.62 µM and 0.833 µM	–	47 µM and > 100 µM	–	–	44.6 µM and > 100 µM	10.8 µM and 22.8 µM	–	4.27 µM and 23.7 µM	5.31 µM and > 33.4 µM	0.837 µM and 0.271 µM
COc1ccc(/C=C(\C#N)c2cc(OC)c(OC)c(OC)c2)cc1	34.6 µM	1.58 µM	> 100 µM	> 100 µM	> 100 µM	> 100 µM	> 82.8 µM	27 µM	> 100 µM	> 100 µM	0.0309	0.0123 µM	0.0209	0.0161	0.0359 µM	0.0258 µM	0.0293 µM	0.0483 µM	0.0634 µM	0.0297 µM
COc1ccc(C(=O)c2ccccc2)c(O)c1	> 100 µM	> 100 µM	> 100 µM	> 100 µM	> 100 µM	> 100 µM	> 100 µM	> 100 µM	> 100 µM	> 100 µM	> 100	16 µM	67.4	50.7	80.7 µM	92 µM	> 100 µM	82.2 µM	> 100 µM	20.4 µM
OC[C@H]1N[C@H](CO)[C@@H](O)[C@H]1O	> 100 µM	> 100 µM	> 100 µM	> 100 µM	> 100 µM	> 100 µM	> 100 µM	> 100 µM	> 100 µM	> 100 µM	–	–	–	–	–	–	–	–	–	–
BrCc1ccc2ccc3ccc(CBr)nc3c2n1	7.58 µM	8.38 µM	12.7 µM	6.7 µM	4.18 µM	3.21 µM	15.7 µM	> 100 µM	6.02 µM	6.69 µM	–	–	–	–	–	–	–	–	–	–
O=C(OCC1=CC(=O)c2ccccc2C1=O)c1ccccc1	33.8 µM	36.8 µM	22.8 µM	29.7 µM	29.5 µM	21.5 µM	29.1 µM	> 100 µM	28 µM	29.4 µM	18.9	18.6 µM	10.4	15.5	10.6 µM	5.69 µM	14.4 µM	21.3 µM	13 µM	14.7 µM
Cc1c(-c2ccc(-c3ccccc3F)cc2)nc2ccc(F)cc2c1C(=O)O	97.7 µM and 291 µM	181 µM and 647 µM	105 µM and 109 µM	78.7 µM and 124 µM	114 µM and 153 µM	31.2 µM and 71.3 µM	161 µM and 244 µM	–	158 µM and 400 µM	248 µM and 316 µM	0.5	–	3.34	0.5	0.0764 µM and 0.5 µM	0.508 µM	0.257 µM and 0.711 µM	0.811 µM	22.4 µM and 67.8 µM	36.7 µM and 81.6 µM
CCOC1=C/C(=N\Nc2ccc([N+](=O)[O-])cc2)CCC1	> 100 µM	> 100 µM	> 100 µM	> 100 µM	57.3 µM	> 100 µM	> 100 µM	> 100 µM	72.6 µM	73.1 µM	–	–	–	–	–	–	–	–	–	–
Cc1nc(C(=O)OCc2ccccc2)cc(OCc2ccccc2)c1C	50.9 µM	> 85.6 µM	> 100 µM	32.6 µM	> 60.6 µM	36 µM	69.2 µM	> 72.7 µM	29.8 µM	39.4 µM	21.2	27.9 µM	32.6	13.6	18.6 µM	17.1 µM	21.9 µM	20.9 µM	15.5 µM	17.5 µM
COc1cccc(C=NC23CC4CC(CC(C4)C2)C3)c1	> 100 µM	> 100 µM	> 100 µM	> 100 µM	> 100 µM	> 100 µM	> 100 µM	> 100 µM	> 100 µM	> 100 µM	–	–	–	–	–	–	–	–	–	–
COc1c(OC2OC(C)C(O)C(O)C2O)c(OC)c2oc(-c3ccc(O)cc3)cc(=O)c2c1O (centres undefined)	> 100 µM	> 100 µM	> 100 µM	> 100 µM	> 100 µM	> 100 µM	> 100 µM	> 100 µM	> 100 µM	87.1 µM	50.7	35.4 µM	27.6	32.4	40.3 µM	27.9 µM	28 µM	28.2 µM	35.4 µM	20.6 µM
C=C(CN1CCc2ccccc2C1)c1ccc(CCCC(=O)Nc2ccccc2N)cc1	28.2 µM	26.1 µM	82.5 µM	33.3 µM	> 100 µM	21.7 µM	62.8 µM	22.2 µM	29.7 µM	27.7 µM	12.1	12.6 µM	17.9	12.8	28 µM	9.15 µM	18.4 µM	5.37 µM	15.7 µM	3.33 µM
CC(C)C(Br)C(=O)NCC(=O)O (centres undefined)	> 100 µM	> 100 µM	> 100 µM	> 100 µM	> 100 µM	> 100 µM	> 100 µM	> 100 µM	> 100 µM	> 100 µM	–	–	–	–	–	–	–	–	–	–
O=S1(=O)CCC2=CC(C(F)(F)F)=CC(C(F)(F)F)=CN21	1.09 µM	3.84 µM	2.03 µM	0.712 µM	1.5 µM	4.95 µM	2.25 µM	2.05 µM	4.54 µM	4.39 µM	–	–	–	–	–	–	–	–	–	–
COc1ccc2c(CN3CCCC[C@H]3O)cc3cc4c(cc3c2c1)OCO4	6.28 µM	1.47 µM	5.66 µM	10.7 µM	10.6 µM	0.849 µM	3.94 µM	1.32 µM	1.31 µM	1.86 µM	0.503	0.542 µM	0.518	0.223	0.369 µM	0.228 µM	0.268 µM	0.298 µM	0.329 µM	0.5 µM
O=C(Nc1ccccc1)N1C(c2ccccc2)=N[C@@H](c2ccccc2)[C@@H]1c1ccccc1	34.7 µM	35.8 µM	48.7 µM	36.3 µM	60.4 µM	28.2 µM	45.6 µM	61.3 µM	30.6 µM	53.5 µM	–	–	–	–	–	–	–	–	–	–
CN(Cc1cnc2nc(N)nc(N)c2n1)c1c(Cl)cc(C(=O)NC(CCC(=O)O)C(=O)O)cc1Cl (centres undefined)	> 100 µM	> 100 µM	0.0242 µM	> 100 µM	> 100 µM	> 100 µM	> 100 µM	> 100 µM	> 100 µM	> 100 µM	< 0.01	0.0994 µM	< 0.01	< 0.01	< 0.01 µM	< 0.01 µM	< 0.01 µM	< 0.01 µM	0.313 µM	0.173 µM
CCN(CC)c1ccc(/C=N/N=C(N)N)cc1	20.7 µM	21.9 µM	> 100 µM	18.5 µM	55.8 µM	19.9 µM	23.5 µM	13.3 µM	20.3 µM	> 100 µM	6.2	2.25 µM	6.73	4.85	4.76 µM	5.02 µM	5.06 µM	2.84 µM	6.27 µM	3.74 µM
COc1ccc(C2=NNC(c3sc(Cl)nc3Cl)C2)cc1 (centres undefined)	> 100 µM	> 100 µM	39.4 µM	14.9 µM	19.3 µM	13.7 µM	21.5 µM	19.2 µM	24.8 µM	> 100 µM	4.06	33.1 µM	11.8	3.39	3.78 µM	3.25 µM	3.6 µM	3.86 µM	10.9 µM	36.6 µM
O=C(O)C(Cc1ccccc1)N1C(=O)/C(=C/C(Cl)=C/c2ccc([N+](=O)[O-])cc2)SC1=S (centres undefined)	5.02 µM	3.24 µM	5.09 µM	5.47 µM	4.58 µM	3.26 µM	> 100 µM	> 100 µM	4.68 µM	5.37 µM	2.2	1.65 µM	2.28	2.01	1.92 µM	1.64 µM	3.13 µM	3.22 µM	2.16 µM	1.96 µM
Cc1cccc(C=NC23CC4CC(CC(C4)C2)C3)c1	> 100 µM	> 100 µM	> 100 µM	> 100 µM	> 100 µM	> 100 µM	> 100 µM	> 100 µM	> 100 µM	> 100 µM	–	–	–	–	–	–	–	–	–	–
O=C1C(=O)N(c2cc(Cl)ccc2Cl)C(=O)C(=O)C1c1nc2ccccc2s1	> 100 µM	> 100 µM	> 100 µM	> 100 µM	> 100 µM	> 100 µM	> 100 µM	> 100 µM	> 100 µM	> 100 µM	–	–	–	–	–	–	–	–	–	–
COc1ccc(-c2cn3ccnc3c(-c3ccc(Cl)cc3)n2)cc1	> 100 µM	9.87 µM	11 µM	> 100 µM	> 100 µM	> 100 µM	> 100 µM	91.3 µM	> 100 µM	> 100 µM	11.7	2.31 µM	2.9	> 100	3.16 µM	7.95 µM	15 µM	4.58 µM	5.37 µM	6.85 µM
C/C(=N\NC(=S)N1CCCC1)c1ccccn1	11 µM	2.37 µM	6.86 µM	12.1 µM	18.9 µM	11.1 µM	12.4 µM	15.6 µM	13.7 µM	13 µM	0.047	0.0798 µM	0.0353	< 0.01	< 0.01 µM	< 0.01 µM	< 0.01 µM	< 0.01 µM	0.32 µM	0.273 µM
O=C1C=C(NCCc2ccccc2)c2ccccc2C1=O	16.6 µM	10.1 µM	21.8 µM	18 µM	3.6 µM	3.37 µM	19.7 µM	67.5 µM	3.96 µM	3.14 µM	–	–	–	–	–	–	–	–	–	–
